# Results reported in PubChem BioAssay AID2060510 (Molecular Pharmacology Branch, DTP, NCI, 2025).
# Test system: 439559-082-T-J2-PDC spheroids viability
# Experiment: Anticancer human tumor 439559-082-T-J2-PDC patient-derived colon adenocarcinoma cell line growth inhibition [GQUAD]
# Settings: for IC50: curve of first compound; for viability, T/C: stronger effect = lower value
# From the text: DNA G-quadruplex Stabilizer Agents in Combinations in Complex Spheroids
# A high-throughput screen of multi-cell type tumor spheroids was designed to identify active combinations of DNA G-quadruplex stabilizer agents and targeted small molecules. Complex spheroids include a stromal component modeled by human endothelial cells (HUVEC) and fibroblasts modeled by human mesenchymal stem cells (MSCs). The concentration ranges selected for each drug and investigational agent were based upon clinically achievable concentrations if the clinical Cmax of the agent was known.
# Compounds. The drugs and investigational agents: pidnarulex (CX-5461; NSC782164), APTO-253 (NSC789042), BRACO-19 (NSC847499), peposertib (NSC802822), ceralasertib (NSC780249), elimusertib (NSC800525), camonsertib (NSC841442), AZD-1390 (NSC803789), olaparib (NSC753686), talazoparib (NSC767125), ART-558 (NSC835418), sotorasib (NSC818433), MRTX-1133 (NSC836407), SN-38 (NSC673596), topotecan (NSC609699), etoposide (NSC141540), doxorubicin (NSC123127), gemcitabine (NSC613327), 5-fluorouracil (NSC19893), paclitaxel (NSC125973), vemurafenib (NSC761431), panobinostat (NSC761190), R-306465 (JNJ-16241199; NSC773264), adavosertib (NSC754352), TP-3654 (NSC805149), carboplatin (NSC241240), KSQ-4279 (NSC840948), and staurosporine (NSC755774) were obtained from the National Cancer Institute (NCI) Developmental Therapeutics Program Chemical Repository (34). The FDA-approved anticancer drug set is available from the NCI Developmental Therapeutics Program. […] The stock solutions were prepared in dimethyl sulfoxide (DMSO, Sigma-Aldrich, St. Louis, MO, cat. D2650) at 800-fold the tested concentration and stored at -70 degrees C prior to their use. All drugs and investigational agents were tested over a range starting from a high concentration at or near the clinical Cmax and decreasing in half-log increments. If the clinical Cmax for an agent had not been determined, the highest concentration tested was 10 microM.
# 2.3 Cell Culture. All cells were maintained in an incubator at 37 degrees C and 5% CO2 with 95% humidity. The PDC lines were cultured according to standard operating procedures established by the NCI PDMR. All PDCs were thawed and cultured in Matrigel-coated flasks prepared with a working solution of 1X Ham's F-12 nutrient mix, without supplementation (Invitrogen, cat. 11765054), 100 U/mL penicillin-streptomycin (Invitrogen, cat. 15140122), and 2.5% Matrigel (Corning Inc., cat. 354248) for the first three passages. The 857933-349-R-J2-PDC line was cultured in 6C/Colon 1B media, which includes advanced DMEM/F-12 (Thermo Fisher Scientific, cat. 12634028), 10 mM HEPES (Thermo Fisher Scientific, cat. 15630080), 1X GlutaMAX supplement (Thermo Fisher Scientific, cat. 35050061), 0.1 mg/mL primocin (InvivoGen, cat. ant-pm-2), 10% defined fetal bovine serum, heat inactivated (HyClone Laboratories Inc., cat. SH30070.03HI), 50% L-WRN conditioned media (ATCC, cat. CRL-3276), 1.25 mM N-Acetyl-L-cysteine (Sigma-Aldrich, cat. A9165), 10 mM nicotinamide (Sigma-Aldrich, cat. N0636), 1X B-27 supplement (Thermo Fisher Scientific, cat. 17504044), 1X N-2 supplement (Thermo Fisher Scientific, cat. 17502048), 10 microM Y-27632 dihydrochloride (Tocris Bioscience, cat. 1254), and 50 ng/mL human EGF recombinant protein (Thermo Fisher Scientific, cat. PHG0311). The 485176-168-R4-J1-PDC line was cultured in Panc media, which includes all 6C/Colon 1B media components plus 100 ng/mL human FGF-10 (Thermo Fisher Scientific, cat. 100-26), 500 nM SB-431542 (Selleckchem, cat. S1067), and gastrin (Tocris, cat. 3006).
# […]
# [1] = second compound 0.0316 µM, first compound 0.0316 µM
# [2] = second compound 0.0316 µM, first compound 0.1 µM
# [3] = second compound 0.0316 µM, first compound 0.316 µM
# [4] = second compound 0.0316 µM, first compound 1 µM
# [5] = second compound 0.0316 µM, first compound 3.16 µM
# [6] = second compound 0.0316 µM, first compound 10 µM
# [7] = second compound 0.1 µM, first compound 0.0316 µM
# [8] = second compound 0.1 µM, first compound 0.1 µM
# [9] = second compound 0.1 µM, first compound 0.316 µM
# [10] = second compound 0.1 µM, first compound 1 µM
# [11] = second compound 0.1 µM, first compound 3.16 µM
# [12] = second compound 0.1 µM, first compound 10 µM
# [13] = second compound 0.316 µM, first compound 0.0316 µM
# [14] = second compound 0.316 µM, first compound 0.1 µM
# [15] = second compound 0.316 µM, first compound 0.316 µM
# [16] = second compound 0.316 µM, first compound 1 µM
# [17] = second compound 0.316 µM, first compound 3.16 µM
# [18] = second compound 0.316 µM, first compound 10 µM
# [19] = second compound 1 µM, first compound 0.0316 µM
# [20] = second compound 1 µM, first compound 0.1 µM
# [21] = second compound 1 µM, first compound 0.316 µM
# [22] = second compound 1 µM, first compound 1 µM
# [23] = second compound 1 µM, first compound 3.16 µM
# [24] = second compound 1 µM, first compound 10 µM
# [25] = second compound 3.16 µM, first compound 0.0316 µM
# [26] = second compound 3.16 µM, first compound 0.1 µM
# [27] = second compound 3.16 µM, first compound 0.316 µM
# [28] = second compound 3.16 µM, first compound 1 µM
# [29] = second compound 3.16 µM, first compound 3.16 µM
# [30] = second compound 3.16 µM, first compound 10 µM
# [31] = second compound 10 µM, first compound 0.0316 µM
# [32] = second compound 10 µM, first compound 0.1 µM
# [33] = second compound 10 µM, first compound 0.316 µM
# [34] = second compound 10 µM, first compound 1 µM
# [35] = second compound 10 µM, first compound 3.16 µM
# [36] = second compound 10 µM, first compound 10 µM
# 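Note: spheroids exposed to the agents for 7 days before readout.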
# 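Throughout, for viability, T/C: percent of luminescence signal in DMSO vehicle wells taken as 100% viability.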
smiles,measurement,setting,value
CC1COCCN1c1cc(-c2ccnn2C)c2ccnc(-c3ccn[nH]3)c2n1 (stereo unspecified) + Cc1cnc(CNC(=O)c2c(=O)c3ccc(N4CCCN(C)CC4)nc3n3c2sc2ccccc23)cn1,IC50,second compound 0.0316 µM,176 nM
same,IC50,second compound 0.1 µM,123 nM
same,IC50,second compound 0.316 µM,80.9 nM
same,IC50,second compound 1 µM,71.5 nM
same,IC50,second compound 3.16 µM,46.8 nM
same,IC50,second compound 10 µM,37.3 nM
same,"viability, T/C",[1],85.7%
same,"viability, T/C",[2],62.4%
same,"viability, T/C",[3],37.3%
same,"viability, T/C",[4],31.8%
same,"viability, T/C",[5],33.6%
same,"viability, T/C",[6],30%
same,"viability, T/C",[7],91.6%
same,"viability, T/C",[8],53%
same,"viability, T/C",[9],36.4%
same,"viability, T/C",[10],27.6%
same,"viability, T/C",[11],40%
same,"viability, T/C",[12],28.1%
same,"viability, T/C",[13],74.4%
same,"viability, T/C",[14],43.8%
same,"viability, T/C",[15],33.9%
same,"viability, T/C",[16],34.1%
same,"viability, T/C",[17],32.9%
same,"viability, T/C",[18],24.4%
same,"viability, T/C",[19],66.3%
same,"viability, T/C",[20],43.4%
same,"viability, T/C",[21],33.2%
same,"viability, T/C",[22],30%
same,"viability, T/C",[23],32%
same,"viability, T/C",[24],26.1%
same,"viability, T/C",[25],57.6%
same,"viability, T/C",[26],33.4%
same,"viability, T/C",[27],31.4%
same,"viability, T/C",[28],31.6%
same,"viability, T/C",[29],27.4%
same,"viability, T/C",[30],19.9%
same,"viability, T/C",[31],52.9%
same,"viability, T/C",[32],35%
same,"viability, T/C",[33],32.5%
same,"viability, T/C",[34],25.9%
same,"viability, T/C",[35],27.3%
same,"viability, T/C",[36],20.3%
CC1COCCN1c1cc(C2(O)CC3CCC(C2)O3)c2cnn(-c3ccn[nH]3)c2n1 (stereo unspecified) + Cc1cnc(CNC(=O)c2c(=O)c3ccc(N4CCCN(C)CC4)nc3n3c2sc2ccccc23)cn1,IC50,second compound 0.0316 µM,901 nM
same,IC50,second compound 0.1 µM,591 nM
same,IC50,second compound 0.316 µM,364 nM
same,IC50,second compound 1 µM,342 nM
same,IC50,second compound 3.16 µM,275 nM
same,IC50,second compound 10 µM,136 nM
same,"viability, T/C",[1],84.9%
same,"viability, T/C",[2],85.1%
same,"viability, T/C",[3],66.8%
same,"viability, T/C",[4],47.8%
same,"viability, T/C",[5],38.4%
same,"viability, T/C",[6],30.4%
same,"viability, T/C",[7],84.4%
same,"viability, T/C",[8],77.6%
same,"viability, T/C",[9],57.6%
same,"viability, T/C",[10],43.8%
same,"viability, T/C",[11],34.6%
same,"viability, T/C",[12],33.2%
same,"viability, T/C",[13],82.5%
same,"viability, T/C",[14],68.7%
same,"viability, T/C",[15],54.3%
same,"viability, T/C",[16],34.3%
same,"viability, T/C",[17],37.9%
same,"viability, T/C",[18],31.3%
same,"viability, T/C",[19],71.4%
same,"viability, T/C",[20],68.2%
same,"viability, T/C",[21],49.6%
same,"viability, T/C",[22],36.5%
same,"viability, T/C",[23],28.8%
same,"viability, T/C",[24],26.6%
same,"viability, T/C",[25],65.5%
same,"viability, T/C",[26],57.8%
same,"viability, T/C",[27],49.9%
same,"viability, T/C",[28],34.6%
same,"viability, T/C",[29],25.2%
same,"viability, T/C",[30],27.3%
same,"viability, T/C",[31],65.6%
same,"viability, T/C",[32],50.5%
same,"viability, T/C",[33],44.5%
same,"viability, T/C",[34],32.8%
same,"viability, T/C",[35],27.6%
same,"viability, T/C",[36],21.2%
CC1COCCN1c1cc(C2(S(C)(=N)=O)CC2)nc(-c2ccnc3[nH]ccc23)n1 (stereo unspecified) + Cc1cnc(CNC(=O)c2c(=O)c3ccc(N4CCCN(C)CC4)nc3n3c2sc2ccccc23)cn1,IC50,second compound 0.0316 µM,> 10000 nM
same,IC50,second compound 0.1 µM,> 10000 nM
same,IC50,second compound 0.316 µM,> 10000 nM
same,IC50,second compound 1 µM,> 10000 nM
same,IC50,second compound 3.16 µM,> 10000 nM
same,IC50,second compound 10 µM,> 10000 nM
same,"viability, T/C",[1],99.5%
same,"viability, T/C",[2],86.3%
same,"viability, T/C",[3],93.8%
same,"viability, T/C",[4],89.6%
same,"viability, T/C",[5],90.9%
same,"viability, T/C",[6],69.9%
same,"viability, T/C",[7],100%
same,"viability, T/C",[8],94.4%
same,"viability, T/C",[9],86.4%
same,"viability, T/C",[10],85.5%
same,"viability, T/C",[11],86.5%
same,"viability, T/C",[12],61.8%
same,"viability, T/C",[13],80.3%
same,"viability, T/C",[14],78.3%
same,"viability, T/C",[15],80.8%
same,"viability, T/C",[16],81.5%
same,"viability, T/C",[17],79.1%
same,"viability, T/C",[18],60.9%
same,"viability, T/C",[19],76.1%
same,"viability, T/C",[20],65.2%
same,"viability, T/C",[21],78.2%
same,"viability, T/C",[22],75.5%
same,"viability, T/C",[23],75.8%
same,"viability, T/C",[24],65.6%
same,"viability, T/C",[25],62%
same,"viability, T/C",[26],74.5%
same,"viability, T/C",[27],66.4%
same,"viability, T/C",[28],71.3%
same,"viability, T/C",[29],75.3%
same,"viability, T/C",[30],55.7%
same,"viability, T/C",[31],61.3%
same,"viability, T/C",[32],59.1%
same,"viability, T/C",[33],66.8%
same,"viability, T/C",[34],60.8%
same,"viability, T/C",[35],61.6%
same,"viability, T/C",[36],49.2%
